From patent US12357603B2, “Acyl sulfonamides for treating cancer” (Bayer Aktiengesellschaft, priority 2019, dated 2025)

Columns and labels:
ZR-75-1 cells = assay: Proliferation assay ZR-75-1 (Alamar Blue, 144 h); format: cell-based; settings: Homo sapiens, ZR-75-1, 144 h, arithmetic mean, read-out: ZR75-1 proliferation assay, EC50 [M] (arithmetic mean)
Source text: (§1) Proliferation Assays for Compound Characterization
(§2) For compound characterization cell survival assays were routinely run in two cell lines. ZR-75-1 is a breast carcinoma cell line containing a focal KAT6A amplification and high KAT6A protein expression. Proliferation of this cell line is inhibited upon treatment with KAT6A inhibitors. As a negative control cell line MDA-MB-436 were used. These cells carry a […] deletion of the KAT6A gene, have a low KAT6A protein expression and are not growth inhibited upon treatment with KAT6A inhibitors.
(§3) For measurements cell lines were plated at the below indicated concentration per […] in 96-well plates in a humidified incubator at 37° C. and 5% CO2.
ZR-75-1 (ATCC, CRL-1500; breast carcinoma); 3000 cells per well; culture medium: RPMI 1640 (Biochrom #FG 1215) medium containing 2.5% FBS (Biochrom #S0615).
(§4) 24 hours later, cells were treated with compounds (stock solution, 10 mM in DMSO) using the HP D300 Digital Dispenser in a concentration range of 2.0×10E-5 M to 2.0×10E-9 M in a single-dot curve with 9 dilutions and a DMSO concentration of 0.2%. Each sample was prepared as triplicate and rim wells were excluded. Plates were incubated at 37° C. and 5% CO2 for 144 h. Cell viability was measured by adding 10 μL of Alamar Blue Reagent (Invitrogen #DAL 1100) and plates were incubated for 2 h at 37° C. and 5% CO2. Fluorescence was measured at 590 nm wavelength with a Tecan Spark or Victor X3 MTP-Reader (PerkinElmer).

MDA-MB-436 cells = assay: Proliferation assay MDA-MB-436, negative control cell line (Alamar Blue, 144 h); format: cell-based; settings: Homo sapiens, MDA-MB-436, 144 h, arithmetic mean
Source text: as §1, §2, §3
MDA-MB-436 (CLS, 300278; breast adenocarcinoma); 3000 cells per well; culture medium: DMEM/Ham's F12 (Biochrom #FG 4815) medium containing 2.5% FBS (Biochrom #S0615).
as §4

[1] = tested on: ESR1 transcription (luciferase signal in MVLN cells); assay: Repression of ESR1 transcription, luciferase reporter in MVLN cells; format: cell-based; settings: Homo sapiens, MVLN, inhibition of luciferase signal in MVLN cells; arithmetic mean
Source text: Repression of ESR1 Transcription Upon Treatment of Cells with Compounds
KAT6A controls transcription of the ESR1 gene in breast cancer cells. Compound treatment that interferes with this mechanism was quantified using MVLN cells. These cells constitutively express the ER and are stably transfected with the luciferase (LUC) reporter gene and the corresponding hormone responsive element derived from the 5′-flanking region of the Xenopus Vitellogenin A2 gene (Pons et al., 1990, Demirpense et al., 1993, Joyeux et al., 1993). The repressive effect on ERα transcription activity of a test chemical is directly related to the luciferase measured in the lysate of treated MVLN cells.
Each sample was prepared as duplicate and rim wells were excluded. For luciferase signal determination 100 μl of a 1:1 mixture of Steadylite plus (Perkin Elmer; 6016759) and assay medium was added after 24 h for 15 minutes and measured in Victor X3 (Perkin Elmer). To exclude any effects caused by cell loss during the treatment, cell density was determined using Alamar Blue (Invitrogen; DAL1100). Prior to the luciferase measurement 10 μl Alamar Blue were added to each well and the plates were incubated for 2 h in the incubator. Then fluorescence was measured with Victor X3 (Perkin Elmer) at 530 nm/590 nm.

[2] = biological target: Recombinant human His-tagged Kat6a protein (amino acids 194-810) (Homo sapiens (Human), UniProt Q92794); assay: Kat6a activity assay (TR-FRET, acetylation of biotinylated Histone-H4-derived peptide); format: biochemical; settings: 60 mins at 22° C., read-out: KAT6A-DPF/HAT domain IC50 [mol/l] (arithmetic mean)
Sequence of Recombinant human His-tagged Kat6a protein (amino acids 194-810) (Q92794 194-810): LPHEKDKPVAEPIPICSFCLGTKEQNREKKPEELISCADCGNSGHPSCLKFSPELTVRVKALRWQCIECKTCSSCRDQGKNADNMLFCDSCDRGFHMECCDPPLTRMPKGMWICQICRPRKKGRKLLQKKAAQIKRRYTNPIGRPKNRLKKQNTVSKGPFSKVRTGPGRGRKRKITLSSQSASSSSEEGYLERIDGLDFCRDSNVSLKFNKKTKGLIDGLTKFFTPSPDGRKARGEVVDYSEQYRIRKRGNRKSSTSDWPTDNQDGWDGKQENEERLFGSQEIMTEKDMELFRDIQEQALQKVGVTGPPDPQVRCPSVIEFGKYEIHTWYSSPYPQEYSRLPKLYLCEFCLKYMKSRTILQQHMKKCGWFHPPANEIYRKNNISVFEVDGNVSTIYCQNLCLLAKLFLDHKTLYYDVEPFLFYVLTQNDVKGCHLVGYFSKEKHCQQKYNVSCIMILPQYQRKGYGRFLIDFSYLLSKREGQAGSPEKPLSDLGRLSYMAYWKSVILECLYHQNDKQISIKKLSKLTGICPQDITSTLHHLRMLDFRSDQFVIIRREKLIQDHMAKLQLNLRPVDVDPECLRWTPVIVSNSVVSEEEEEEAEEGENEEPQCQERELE
Source text: Kat6a inhibitory activities of the compounds described in the present invention were quantified using a Fluorescence Resonance Energy Transfer (TR-FRET) assay which measures acetylation of a synthetic, biotinylated Histone-H4-derived peptide by the enzyme.
Recombinant human His-tagged Kat6a protein (amino acids 194-810), was purified in-house from Baculovirus-infected insect cells (Sf9). Histone H4 peptide (amino acids 1-24, […]-VLRD-K(Btn)-amide), which was used as substrate, was synthesized by Biosyntan GmbH, Berlin, Germany. Acetyl Coenzyme A was purchased from Sigma-Aldrich (#A-2056).
Kat6a was incubated for 60 mins at 22° C. in the presence of different concentrations of test substances (0 μM, and within the range 0.01-20 μM) in assay buffer [25 mM Tris/HCl pH 8, 1 mM EGTA, 2.5 mM Glutathion, 0.02% Chicken Albumin, 0.05% Pluronic F127, 25 mM NaCl, 220 nM H4 peptide and 600 nM Acetyl Coenzym A].
The reaction was stopped by addition of Detection Solution (25 mM HEPES pH 7.5, 0.1% BSA, 22 nM SAXL665 (Cisbio #610SAXLE), 100 μM Anacardic Acid (Enzo #ALX-270-381), 1 nM Anti-Histone H4 (ACETYL K8) Antibody (ABCAM #AB15823) and 0.5 nM Anti-Rabbit IgG Eu (Perkin Elmer #AD0083).
The fluorescence emission at 620 nm and 665 nm after excitation at 330-350 nm was measured in a TR-FRET measuring instrument, for instance a Rubystar or a Pherastar (both from BMG Lab Technologies, Offenburg, Germany) or a Viewlux (Perkin-Elmer). The ratio of the emission at 665 nm and at […] was used as indicator of the amount of acetylated peptide.
The resulting data (ratio) were normalized, taking 0% inhibition as the mean value of control measurements where all reagents were included. In this case 50 nl DMSO were used instead of compounds. […] IC50 values were determined by regression analysis based on a 4 parameter equation (minimum, maximum, ICM, Hill; Y=Max+(Min−Max)/(1+(X/ICso) Hill) using the Screener Software (Genedata).
Table 5 depicts the IC50 values of selected examples in biochemical KAT6A and KAT6B3 assays.

Row | EC50 (MDA-MB-436 cells) | IC50 [1] | IC50 [2] | Compound | EC50 (ZR-75-1 cells)
1 | > 20 µM | > 20 µM | 3.17 µM | CC1CCCN1c1ccc2cc(C(=O)NS(=O)(=O)c3ccccc3-c3ccccc3)oc2c1 (racemic) [Example 44, N-([1,1′-Biphenyl]-2-sulfonyl)-6-[2-methylpyrrolidin-1-yl]-1-benzofuran-2-carboxamide (rac)] | > 2e-05 M
2 | > 20 µM | 0.0686 µM | 0.0579 µM | CC(Oc1ccccc1S(=O)(=O)NC(=O)c1cc2ccc(N(C)C)cc2o1)C(F)(F)F (racemic) [Example 135, 6-(Dimethylamino)-N-(2-[-1,1,1-trifluoropropan-2-yl)oxy]benzene-1-sulfonyl)-1-benzofuran-2-carboxamide (rac)] | 1.46e-07 M
3 | > 20 µM | 0.0221 µM | 0.0044 µM | CCOc1ccc(C(C)CC)cc1S(=O)(=O)NC(=O)c1cc2ccc(N(C)C)cc2o1 (racemic) [Example 170, 6-(Dimethylamino)-N-(2-ethoxy-5-sec-butyl-phenyl)sulfonyl-benzofuran-2-carboxamide (rac)] | 3.02e-08 M
4 | > 20 µM | 4.28 µM |  | CCN(C)c1ccc2cc(C(=O)NS(=O)(=O)c3ccc(Cl)cc3Cl)oc2c1 [Example 3, N-(2,4-Dichlorophenyl)sulfonyl-6-[ethyl(methyl)amino]benzofuran-2-carboxamide] | 2e-05 M
5 | > 20 µM | > 20 µM |  | CN(c1ccccc1)c1ccc2cc(C(=O)NS(=O)(=O)c3ccc(Cl)cc3Cl)oc2c1 [Example 9, N-(2,4-Dichlorophenyl)sulfonyl-6-(N-methylanilino)benzofuran-2-carboxamide] | > 2e-05 M
6 | > 20 µM | 1.75 µM | 0.134 µM | CN(C)c1ccc2cc(C(=O)NS(=O)(=O)c3ccc(Cl)cc3Cl)oc2c1 [Example 27, N-(2,4-Dichlorobenzene-1-sulfonyl)-6-(dimethylamino)-1-benzofuran-2-carboxamide] | 1.73e-06 M
7 | > 20 µM | 14 µM |  | CCCN(C)c1ccc2cc(C(=O)NS(=O)(=O)c3ccccc3-c3ccccc3)oc2c1 [Example 37, N-([1,1′-Biphenyl]-2-sulfonyl)-6-[methyl(propyl)amino]-1-benzofuran-2-carboxamide] | > 2e-05 M
8 | > 20 µM | 0.1 µM |  | COCCN(C)c1ccc2cc(C(=O)NS(=O)(=O)c3ccccc3-c3ccccc3)oc2c1 [Example 39, N-([1,1′-Biphenyl]-2-sulfonyl)-6-[(2-methoxyethyl)(methyl)amino]-1-benzofuran-2-carboxamide] | 3.41e-08 M
9 | > 20 µM | > 20 µM |  | CN(c1ccc2cc(C(=O)NS(=O)(=O)c3ccccc3-c3ccccc3)oc2c1)C1CCCC1 [Example 46, N-([1,1′-Biphenyl]-2-sulfonyl)-6-[cyclopentyl(methyl)amino]-1-benzofuran-2-carboxamide] | > 2e-05 M
10 | > 20 µM |  |  | CCCc1ccccc1S(=O)(=O)NC(=O)c1cc2ccc(N(C)C)cc2o1 [Example 52, 6-(Dimethylamino)-N-(2-propylbenzene-1-sulfonyl)-1-benzofuran-2-carboxamide] | 1.94e-07 M
11 | > 20 µM |  | 0.44 µM | COc1cc(C#N)ccc1S(=O)(=O)NC(=O)c1cc2ccc(N(C)C)cc2o1 [Example 53, N-(4-Cyano-2-methoxybenzene-1-sulfonyl)-6-(dimethylamino)-1-benzofuran-2-carboxamide] | 2.64e-07 M
12 | 11.4 µM | 3.07 µM |  | O=C(NS(=O)(=O)c1ccccc1-c1ccccc1)c1cc2ccc(N3CCCC3=O)cc2o1 [Example 62, N-([1,1′-Biphenyl]-2-sulfonyl)-6-(2-oxopyrrolidin-1-yl)-1-benzofuran-2-carboxamide] | 1.09e-06 M
13 | > 20 µM | 0.488 µM | 0.15 µM | CN1Cc2cccc(S(=O)(=O)NC(=O)c3cc4ccc(N(C)C)cc4o3)c2C1=O [Example 95, 6-(Dimethylamino)-N-(2-methyl-3-oxo-2,3-dihydro-1H-isoindole-4-sulfonyl)-1-benzofuran-2-carboxamide] | 7.18e-07 M
14 | > 20 µM | 0.556 µM | 0.26 µM | CN(C)c1ccc2cc(C(=O)NS(=O)(=O)c3ccccc3OC(F)(F)C(F)(F)F)oc2c1 [Example 96, 6-(Dimethylamino)-N-[2-(pentafluoroethoxy)benzene-1-sulfonyl]-1-benzofuran-2-carboxamide] | 1e-06 M
15 | > 20 µM | 0.571 µM | 0.465 µM | CN(C)c1ccc2cc(C(=O)NS(=O)(=O)c3c(Cl)cccc3C(F)(F)F)oc2c1 [Example 97, N-[2-Chloro-6-(trifluoromethyl)benzene-1-sulfonyl]-6-(dimethylamino)-1-benzofuran-2-carboxamide] | 6.15e-07 M
16 | > 20 µM | 0.603 µM |  | CN(C)c1ccc2cc(C(=O)NS(=O)(=O)c3c(Cl)cccc3Cl)oc2c1 [Example 98, N-(2,6-Dichlorobenzene-1-sulfonyl)-(dimethylamino)-1-benzofuran-2-carboxamide] | 8.17e-07 M
17 | > 20 µM | 9.5 µM |  | CN(C)c1c(Br)cc2cc(C(=O)NS(=O)(=O)c3ccccc3-c3ccccc3)oc2c1F [Example 206, N-([1,1′-Biphenyl]-2-sulfonyl)-5-bromo-6-(dimethylamino)-7-fluoro-1-benzofuran-2-carboxamide] | > 2e-05 M
18 | > 20 µM | 14.6 µM |  | CC(C)Oc1ccccc1S(=O)(=O)NC(=O)c1cc2cc(Br)c(N(C)C)cc2o1 [Example 208, 5-Bromo-6-(dimethylamino)-N-{2-[(propan-2-yl)oxy]benzene-1-sulfonyl}-1-benzofuran-2-carboxamide] | 1.83e-05 M
19 | > 20 µM | 9.88 µM |  | CCOc1ccc(Br)cc1S(=O)(=O)NC(=O)c1cc2ccc(N(C)CCOC)cc2o1 [Example 213, N-(5-Bromo-2-ethoxybenzene-1-sulfonyl)-6-[(2-methoxyethyl)(methyl)amino]-1-benzofuran-2-carboxamide] | 8.48e-06 M
